Assay results as given in paper PMC9403976, “Elucidating the path to Plasmodium prolyl-tRNA synthetase inhibitors that overcome halofuginone resistance” (Nature Communications, 2022).
“And” between values parts separate entries of the source, which are not always exact repeats. Equal values may be shown once. Read-outs that look alike come from different tables or passages of the source.

Key:
P. falciparum Dd2-2D4 = assay: P. falciparum asexual blood stage (ABS) growth assay, SYBR Green, 72 h, wild-type parasites; assay type: cell-based, Plasmodium falciparum; details: Plasmodium falciparum, DD2; SI Fig 16b; values on -log scale; read-out: ABS - Dd2-2D4 (converted)
HsProRS = HsProRS (Homo sapiens, UniProt P07814); assay: TR-FRET ligand displacement assay with tracer MAT379 (CoraFluor-1-Halo and anti-His6 antibody formats); assay type: binding; set-up: made in house; host or cells: E. coli SoluBL-21; details: for TR-FRET dose-response, normalized signal (SI Fig 11): individual replicates
PfcProRS = target: T1, PfcProRS (Plasmodium falciparum, UniProt Q8I5R7); assay type: binding; details: single replicates
T1 construct: made in house; host or cells: E. coli SoluBL-21
T1 sequence (Q8I5R7 249-746): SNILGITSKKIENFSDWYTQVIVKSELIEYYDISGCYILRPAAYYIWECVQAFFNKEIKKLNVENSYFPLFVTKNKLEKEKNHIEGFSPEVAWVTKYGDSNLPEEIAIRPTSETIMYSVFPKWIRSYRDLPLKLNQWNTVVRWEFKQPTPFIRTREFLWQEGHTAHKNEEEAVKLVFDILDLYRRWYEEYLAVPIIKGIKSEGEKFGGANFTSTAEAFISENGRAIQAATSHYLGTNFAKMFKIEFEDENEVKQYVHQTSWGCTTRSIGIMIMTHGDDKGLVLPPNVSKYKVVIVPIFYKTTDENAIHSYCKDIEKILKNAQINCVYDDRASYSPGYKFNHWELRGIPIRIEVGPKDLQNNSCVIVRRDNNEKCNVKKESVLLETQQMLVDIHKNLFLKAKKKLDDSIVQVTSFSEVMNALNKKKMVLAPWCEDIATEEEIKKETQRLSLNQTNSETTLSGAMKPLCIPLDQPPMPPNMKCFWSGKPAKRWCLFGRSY

Sequence of HsProRS (P07814 996-1512): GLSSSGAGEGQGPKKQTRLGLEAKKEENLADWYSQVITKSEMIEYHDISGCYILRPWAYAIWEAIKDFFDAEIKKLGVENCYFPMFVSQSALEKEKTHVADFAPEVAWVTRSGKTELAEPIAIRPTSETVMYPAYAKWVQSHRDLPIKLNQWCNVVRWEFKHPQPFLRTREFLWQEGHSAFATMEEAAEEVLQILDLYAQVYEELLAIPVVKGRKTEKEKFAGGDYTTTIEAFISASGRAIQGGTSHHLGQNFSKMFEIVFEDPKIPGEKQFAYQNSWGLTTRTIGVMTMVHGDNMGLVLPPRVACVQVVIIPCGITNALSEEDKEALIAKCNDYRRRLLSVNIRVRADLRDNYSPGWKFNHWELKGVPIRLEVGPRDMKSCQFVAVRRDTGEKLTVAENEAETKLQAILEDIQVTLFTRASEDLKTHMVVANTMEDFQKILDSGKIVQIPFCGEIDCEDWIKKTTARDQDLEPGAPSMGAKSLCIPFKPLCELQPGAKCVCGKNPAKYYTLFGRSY

## CC(C)(C)OC(=O)NC1(C(=O)Nc2nccnc2C(=O)NC2Cc3ccccc3C2)CCCCC1 [compound 16]
P. falciparum Dd2-2D4
  EC50: 6.11 µM
HsProRS
  IC50: > 10 µM
HsProRS; + 100 μM proline, 10 μM
  HsProRS % signal at 10 μM, + 100 μM proline: 70.7%
HsProRS; Log[inhibitor] (M) -5.000
  normalized TR-FRET ligand displacement signal, dose-response replicates (SI Fig 6): 4.34E-01 and 4.81E-01 and 6.11E-01
  TR-FRET dose-response, normalized signal (SI Fig 11): 8.52E-01 and 8.40E-01 and 8.43E-01
HsProRS; Log[inhibitor] (M) -5.301
  normalized TR-FRET ligand displacement signal, dose-response replicates (SI Fig 6): 6.93E-01 and 7.38E-01 and 8.04E-01
  TR-FRET dose-response, normalized signal (SI Fig 11): 9.27E-01 and 9.08E-01 and 9.74E-01
HsProRS; Log[inhibitor] (M) -5.601
  normalized TR-FRET ligand displacement signal, dose-response replicates (SI Fig 6): 9.79E-01 and 9.61E-01 and 8.02E-01
  TR-FRET dose-response, normalized signal (SI Fig 11): 9.47E-01 and 9.15E-01 and 9.10E-01
HsProRS; Log[inhibitor] (M) -5.904
  normalized TR-FRET ligand displacement signal, dose-response replicates (SI Fig 6): 1.00E+00 and 9.00E-01 and 9.53E-01
  TR-FRET dose-response, normalized signal (SI Fig 11): 9.81E-01 and 1.01E+00 and 9.64E-01
HsProRS; Log[inhibitor] (M) -6.208
  normalized TR-FRET ligand displacement signal, dose-response replicates (SI Fig 6): 1.01E+00 and 9.68E-01 and 8.67E-01
  TR-FRET dose-response, normalized signal (SI Fig 11): 9.74E-01 and 9.73E-01 and 9.58E-01
HsProRS; Log[inhibitor] (M) -6.509
  normalized TR-FRET ligand displacement signal, dose-response replicates (SI Fig 6): 8.93E-01 and 9.31E-01 and 9.89E-01
  TR-FRET dose-response, normalized signal (SI Fig 11): 9.98E-01 and 9.53E-01 and 9.97E-01
HsProRS; Log[inhibitor] (M) -6.796
  normalized TR-FRET ligand displacement signal, dose-response replicates (SI Fig 6): 9.58E-01 and 1.05E+00 and 1.01E+00
  TR-FRET dose-response, normalized signal (SI Fig 11): 9.61E-01 and 9.66E-01 and 9.67E-01
HsProRS; Log[inhibitor] (M) -7.108
  normalized TR-FRET ligand displacement signal, dose-response replicates (SI Fig 6): 9.61E-01 and 9.43E-01 and 9.87E-01
  TR-FRET dose-response, normalized signal (SI Fig 11): 9.51E-01 and 9.57E-01 and 9.59E-01
HsProRS; Log[inhibitor] (M) -7.409
  normalized TR-FRET ligand displacement signal, dose-response replicates (SI Fig 6): 1.08E+00 and 1.02E+00 (2×)
  TR-FRET dose-response, normalized signal (SI Fig 11): 9.88E-01 and 8.98E-01 and 1.00E+00
HsProRS; Log[inhibitor] (M) -7.710
  normalized TR-FRET ligand displacement signal, dose-response replicates (SI Fig 6): 9.30E-01 and 9.73E-01 and 8.91E-01
  TR-FRET dose-response, normalized signal (SI Fig 11): 9.77E-01 and 9.48E-01 and 9.54E-01
HsProRS; Log[inhibitor] (M) -8.000
  normalized TR-FRET ligand displacement signal, dose-response replicates (SI Fig 6): 9.09E-01 and 9.96E-01 and 8.17E-01
  TR-FRET dose-response, normalized signal (SI Fig 11): 9.83E-01 and 9.29E-01 and 9.65E-01
HsProRS; Log[inhibitor] (M) -8.301
  normalized TR-FRET ligand displacement signal, dose-response replicates (SI Fig 6): 9.56E-01 and 8.69E-01 and 9.45E-01
  TR-FRET dose-response, normalized signal (SI Fig 11): 1.00E+00 and 1.01E+00 and 9.30E-01
HsProRS; Log[inhibitor] (M) -8.602
  normalized TR-FRET ligand displacement signal, dose-response replicates (SI Fig 6): 9.44E-01 and 9.32E-01 and 1.00E+00
  TR-FRET dose-response, normalized signal (SI Fig 11): 9.93E-01 and 9.41E-01 and 1.01E+00
HsProRS; Log[inhibitor] (M) -9.000
  normalized TR-FRET ligand displacement signal, dose-response replicates (SI Fig 6): 8.94E-01 and 8.85E-01 and 9.67E-01
  TR-FRET dose-response, normalized signal (SI Fig 11): 9.74E-01 and 9.63E-01 and 9.89E-01
HsProRS; Log[inhibitor] (M) -9.301
  normalized TR-FRET ligand displacement signal, dose-response replicates (SI Fig 6): 1.12E+00 and 1.00E+00 and 9.62E-01
  TR-FRET dose-response, normalized signal (SI Fig 11): 9.82E-01 and 9.33E-01 and 9.53E-01
HsProRS; no added proline/ATP (-), 10 μM
  HsProRS % signal at 10 μM: 84.5%
HsProRS; read-out: HsProRS IC50 + 100 μM proline, + 100 μM proline
  IC50: > 10 µM
PfcProRS; Log[inhibitor] (M) -5.000
  dose-response signal (normalized), SI Fig 8: 6.20E-01 and 5.27E-01 and 6.63E-01
PfcProRS; Log[inhibitor] (M) -5.301
  dose-response signal (normalized), SI Fig 8: 7.82E-01 and 8.01E-01 and 7.78E-01
PfcProRS; Log[inhibitor] (M) -5.601
  dose-response signal (normalized), SI Fig 8: 9.11E-01 and 9.60E-01 and 1.00E+00
PfcProRS; Log[inhibitor] (M) -5.904
  dose-response signal (normalized), SI Fig 8: 1.10E+00 and 9.14E-01 and 1.01E+00
PfcProRS; Log[inhibitor] (M) -6.208
  dose-response signal (normalized), SI Fig 8: 9.01E-01 and 9.36E-01 and 9.23E-01
PfcProRS; Log[inhibitor] (M) -6.509
  dose-response signal (normalized), SI Fig 8: 1.06E+00 and 9.75E-01 and 1.11E+00
PfcProRS; Log[inhibitor] (M) -6.796
  dose-response signal (normalized), SI Fig 8: 9.95E-01 (2×) and 1.12E+00
PfcProRS; Log[inhibitor] (M) -7.108
  dose-response signal (normalized), SI Fig 8: 9.41E-01 and 8.82E-01 and 1.04E+00
PfcProRS; Log[inhibitor] (M) -7.409
  dose-response signal (normalized), SI Fig 8: 1.04E+00 and 1.02E+00 and 9.01E-01
PfcProRS; Log[inhibitor] (M) -7.710
  dose-response signal (normalized), SI Fig 8: 9.65E-01 and 9.90E-01 and 1.00E+00
PfcProRS; Log[inhibitor] (M) -8.000
  dose-response signal (normalized), SI Fig 8: 9.92E-01 and 8.87E-01 and 9.29E-01
PfcProRS; Log[inhibitor] (M) -8.301
  dose-response signal (normalized), SI Fig 8: 9.41E-01 and 9.84E-01 and 9.99E-01
PfcProRS; Log[inhibitor] (M) -8.602
  dose-response signal (normalized), SI Fig 8: 9.39E-01 and 9.44E-01 and 1.00E+00
PfcProRS; Log[inhibitor] (M) -9.000
  dose-response signal (normalized), SI Fig 8: 9.16E-01 and 9.94E-01 and 9.86E-01
PfcProRS; Log[inhibitor] (M) -9.301
  dose-response signal (normalized), SI Fig 8: 9.11E-01 and 9.01E-01 and 9.58E-01
